Source: patent US20090018211A1, “Method for inhibiting of COX2 and inflammation with phenolic aldehydes” (Board of Trustees of Michigan State University, priority 2007, published 2009)

How the values were obtained:
COX-1 enzyme = biological target: T1, COX-1 enzyme (Ovis aries, UniProt P05979); experiment: Cyclooxygenase inhibitory assay (oxygen consumption, arachidonic acid substrate), COX-1; assay type: biochemical; details: for COX-1 enzyme inhibition: at 100 ppm (FIG. 1)
T1 sequence (P05979 25-600): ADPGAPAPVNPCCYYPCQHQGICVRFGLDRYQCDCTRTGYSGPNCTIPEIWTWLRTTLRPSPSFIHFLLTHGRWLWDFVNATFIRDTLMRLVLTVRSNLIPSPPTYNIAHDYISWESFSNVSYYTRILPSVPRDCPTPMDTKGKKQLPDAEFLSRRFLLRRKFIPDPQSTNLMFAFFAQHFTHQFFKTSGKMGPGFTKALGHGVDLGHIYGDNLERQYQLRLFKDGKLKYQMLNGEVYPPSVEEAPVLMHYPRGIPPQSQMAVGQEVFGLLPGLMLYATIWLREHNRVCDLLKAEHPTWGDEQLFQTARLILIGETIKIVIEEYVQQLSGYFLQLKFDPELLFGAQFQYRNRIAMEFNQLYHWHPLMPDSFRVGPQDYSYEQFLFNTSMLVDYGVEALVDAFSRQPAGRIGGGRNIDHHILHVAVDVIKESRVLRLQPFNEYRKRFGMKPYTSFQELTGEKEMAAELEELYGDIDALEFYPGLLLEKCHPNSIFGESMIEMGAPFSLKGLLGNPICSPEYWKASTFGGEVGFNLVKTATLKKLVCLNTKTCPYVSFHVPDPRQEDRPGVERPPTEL
Method: (§1) Cyclooxygenase enzyme inhibitory assay of the extracts and compounds were carried out using COX-1 and COX-2 enzymes according to the previously published procedures (Jayaprakasam, B. et al., 2006. J. Agric. Food Chem., 54, 5375-5381).
(§2) Cyclooxygenase Inhibitory Activity. The rate of oxygen consumption during the initial phase of the enzyme-mediated reaction, with arachidonic acid as substrate was measured using a Model 5300 biological oxygen monitor (Yellow Spring Instrument, Inc., Yellow Spring, Ohio). The test compounds, extracts and positive controls were dissolved in DMSO and an aliquot of 10 μL of each was added to the reaction chamber containing 0.6 mL of Tris buffer (0.1 M, pH 7) and, 1 mM of phenol, hemoglobin (17 μg). COX-1 or -2 enzymes (10 μL) was added to the chamber and incubated for 3 min. The reaction was initiated by the addition of arachidonic acid (10 μL of 1 mg/mL solution). Instantaneous inhibition was measured by using Quick Log Data acquisition and control computer software (Strawberry Tree Inc., Sunnyvale, Calif., USA). The percent inhibition was calculated with respect to DMSO control. Each sample was assayed twice and the standard deviation was calculated for n=2. Aspirin, Celebrex and Vioxx were used as positive controls.

COX-2 enzyme = biological target: T2, COX-2 enzyme (Homo sapiens, UniProt P35354); experiment: Cyclooxygenase inhibitory assay (oxygen consumption, arachidonic acid substrate), COX-2; assay type: biochemical; details: for COX-2 enzyme inhibition: at 100 ppm (FIG. 1)
T2 sequence (P35354 18-604): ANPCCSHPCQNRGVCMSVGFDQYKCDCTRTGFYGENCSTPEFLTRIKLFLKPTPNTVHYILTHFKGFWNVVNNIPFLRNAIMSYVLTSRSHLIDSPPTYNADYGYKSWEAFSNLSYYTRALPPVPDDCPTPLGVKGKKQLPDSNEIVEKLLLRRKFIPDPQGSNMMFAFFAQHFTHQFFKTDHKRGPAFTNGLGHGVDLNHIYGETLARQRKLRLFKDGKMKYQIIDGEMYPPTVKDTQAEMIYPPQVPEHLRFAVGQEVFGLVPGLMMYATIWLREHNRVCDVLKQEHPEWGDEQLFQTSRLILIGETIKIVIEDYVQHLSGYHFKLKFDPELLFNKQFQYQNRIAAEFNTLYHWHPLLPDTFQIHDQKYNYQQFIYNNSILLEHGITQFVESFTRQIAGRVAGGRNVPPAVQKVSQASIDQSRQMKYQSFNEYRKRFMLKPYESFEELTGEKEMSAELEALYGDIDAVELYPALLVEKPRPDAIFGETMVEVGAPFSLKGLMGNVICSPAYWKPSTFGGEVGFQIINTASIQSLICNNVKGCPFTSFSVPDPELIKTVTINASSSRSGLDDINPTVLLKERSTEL
Method: as §1, §2

Compound	COX-1 enzyme inhibition (COX-1 enzyme)	COX-2 enzyme inhibition (COX-2 enzyme)	other results
O=Cc1ccccc1 [A, Benzaldehyde]	not active	not active	
O=Cc1cccc(O)c1 [C, 3-hydroxybenzaldehyde]			selective inhibition of COX-1 enzyme (COX-1 enzyme; FIG. 1, 100 ppm, versus COX-2): selectively inhibited COX-1 enzyme
O=Cc1ccc(O)c(O)c1O [Compound J, 2,3,4-trihydroxybenzaldehyde]			activity on COX-1 enzyme (COX-1 enzyme; even at a 500 ppm concentration (FIG. 2)): not active; selective inhibition of COX-2 enzyme (COX-2 enzyme; FIG. 1, 100 ppm, versus COX-1): selectively inhibited COX-2 enzyme; IC50 (COX-2 enzyme; dose response (FIG. 2), read-out: IC50, inhibition of COX-2 (converted)): ~64.9 µM
O=Cc1cc(O)c(O)cc1O [K, 2,4,5-trihydroxybenzaldehyde]	not active	not active	
